Patent US20050209343A1, “Percutaneous absorption promoters and compositions for treating athlete's foot” (priority 2002, published 2005)

Key:
[1] = Percutaneous absorbability test: amount of antifungal agent in skin after ointment administration; conditions: for Amount of antifungal agent in skin relative to antifungal agent alone (100), value in parentheses: same test, 2 hours after administration, *p<0.05, **p<0.01 Student t-test
Experimental: Using clotrimazole, bifonazole, and econazole as antifungal agents, the percutaneous absorption promoting effects of reduced coenzyme Q10 and oxidized coenzyme Q10 to these antifungal agents were evaluated. The antifungal agents were separately dissolved in ethanol, mixed with heat-melted polyethylene glycol 1000 (PEG 1000) so as to have the final concentration of 1%, and prepared into ointments by allowing them to stand at room temperature. Each of heat-melted reduced coenzyme Q10 and oxidized coenzyme Q10 was mixed with the above-mentioned heat-melted PEG 1000 ointment containing each antifungal agent to prepare mixed ointments in which each of the final concentrations of coenzyme Q10s and antifungal agent is 1%.
A percutaneous absorbability test was carried out using fully fed male hairless rats (weight: 350 to 400 g). The hairless rats were mildly anesthetized with ether, and three administration parts of 3 cm square were set on the backs of each rat. To each part, 0.1 g of each ointment, i.e. the ointment containing an antifungal agent alone, the ointment containing an antifungal agent and reduced coenzyme Q10, and the ointment containing an antifungal agent and oxidized coenzyme Q10 was administered. After the lapse of 2 hours from the administration, the rat was euthanized, the administration parts were thoroughly washed, and skin was collected. The clotrimazole amounts in skin were determined by the sequential treatment subjecting the skin to homogenization, acetone extraction, concentration using a solid phase column, and high performance liquid chromatography. Each amount of bifonazole and econazole in the skin was determined by the sequential treatment subjecting the skin to homogenization, methanol extraction, and high performance liquid chromatography.
The values are the average value ±standard deviation (n=3).

[2] = everyday administration, 1200 mg/kg/day for 52 weeks (Williams et al. 1999); cited from earlier work
[3] = Skin irritation test (Draize method); type: in vivo, JW rabbits
Experimental: A skin irritation test was carried out using JW rabbits (17 to 18 weeks old). The backs of three rabbits were dehaired by an electric hair clipper, and four divisions of administration parts of 2.5×2.5 cm square were set on each rabbit back. 0.5 g of each specimen, i.e. oxidized coenzyme Q10 and reduced coenzyme Q10 (containing 2% of oxidized coenzyme Q10) was administered on the administration parts, and the parts were covered with gauzes for specimen's fixation. After the lapse of 4 hours, the specimens were removed. Further after the lapse of 1 hour, 24 hours, 48 hours, and 72 hours, formation of erythema, crusta and dropsy was determined by the method according to Draize J. H. et al. (Exp. Ther., 82, 377-390, 1944). That is, observations were made in view of formations of erythema, crusta and dropsy, they were scored for calculation of the primary irritation indexes, and the skin irritations were evaluated based on said primary irritation indexes. As a result, all scores were 0 (i.e. no erythema, crusta or dropsy) in observation items of oxidized coenzyme Q10 and reduced coenzyme Q10.

Compound: c1ccc(-c2ccc(C(c3ccccc3)n3ccnc3)cc2)cc1 (stereo not drawn) [Bifonazole, bifonazole]
- Amount of antifungal agent in skin relative to antifungal agent alone (100), value in parentheses [1]: (100)

Compound: Clc1ccccc1C(c1ccccc1)(c1ccccc1)n1ccnc1 [Clotrimazole, clotrimazole]
- Amount of antifungal agent in skin relative to antifungal agent alone (100), value in parentheses [1]: (100)

Compound: Clc1ccc(COC(Cn2ccnc2)c2ccc(Cl)cc2Cl)cc1 (stereo not drawn) [Econazole, econazole]
- Amount of antifungal agent in skin relative to antifungal agent alone (100), value in parentheses [1]: (100)

Compound: COC1=C(OC)C(=O)C(C/C=C(\C)CC/C=C(\C)CC/C=C(\C)CC/C=C(\C)CC/C=C(\C)CC/C=C(\C)CC/C=C(\C)CC/C=C(\C)CC/C=C(\C)CCC=C(C)C)=C(C)C1=O [coenzyme Q10]
- Toxic influence in chronic toxicity test [2]: completely no toxic influence had been observed

Compound: COC1=C(OC)C(=O)C(C/C=C(\C)CC/C=C(\C)CC/C=C(\C)CC/C=C(\C)CC/C=C(\C)CC/C=C(\C)CC/C=C(\C)CC/C=C(\C)CC/C=C(\C)CCC=C(C)C)=C(C)C1=O [oxidized coenzyme Q10]
- Increase of antifungal agent amount in skin ([1]; rat, in vivo): 20-40%
- Scores for erythema, crusta and dropsy (Draize) ([3]; rabbit, in vivo): 0
- Skin irritation (based on primary irritation index) ([3]; rabbit, in vivo): no skin irritation was observed

Compound: COc1c(O)c(C)c(C/C=C(\C)CC/C=C(\C)CC/C=C(\C)CC/C=C(\C)CC/C=C(\C)CC/C=C(\C)CC/C=C(\C)CC/C=C(\C)CC/C=C(\C)CCC=C(C)C)c(O)c1OC [reduced coenzyme Q10]
- Scores for erythema, crusta and dropsy (Draize) ([3]; 0.5 g on 2.5×2.5 cm dehaired back skin for 4 hours, observed 1, 24, 48 and 72 hours after removal, three rabbits): 0
- Skin irritation (based on primary irritation index) ([3]; 0.5 g on dehaired back skin for 4 hours, observed up to 72 hours after removal): no skin irritation was observed
